From patent US20110015226A1, “Treatment of Energy Utilization Disease” (SUMMIT CORPORATION PLC, priority 2008, published 2011)
One block for each compound: values may come before it.

Tests used:
Format in all cases: biochemical
[1] = target: T1, β-Glucuronidase Bovine liver (Bos taurus, UniProt A3KMY8); assay: Glycosidase inhibition: β-Glucuronidase Bovine liver; conditions: compounds tested at 0.8 mM;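 note: bovine liver β-glucuronidase acting on p-nitrophenyl β-D-glucuronide substrate in citric acid/disodium hydrogen phosphate buffer, pH 5.0, 27 °C, mean of triplicate runs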
T1 construct: The assay involved the use of Bovine liver β-glucuronidase; purchased Sigma; host or cells: bovine liver
T1 sequence (A3KMY8 1-652): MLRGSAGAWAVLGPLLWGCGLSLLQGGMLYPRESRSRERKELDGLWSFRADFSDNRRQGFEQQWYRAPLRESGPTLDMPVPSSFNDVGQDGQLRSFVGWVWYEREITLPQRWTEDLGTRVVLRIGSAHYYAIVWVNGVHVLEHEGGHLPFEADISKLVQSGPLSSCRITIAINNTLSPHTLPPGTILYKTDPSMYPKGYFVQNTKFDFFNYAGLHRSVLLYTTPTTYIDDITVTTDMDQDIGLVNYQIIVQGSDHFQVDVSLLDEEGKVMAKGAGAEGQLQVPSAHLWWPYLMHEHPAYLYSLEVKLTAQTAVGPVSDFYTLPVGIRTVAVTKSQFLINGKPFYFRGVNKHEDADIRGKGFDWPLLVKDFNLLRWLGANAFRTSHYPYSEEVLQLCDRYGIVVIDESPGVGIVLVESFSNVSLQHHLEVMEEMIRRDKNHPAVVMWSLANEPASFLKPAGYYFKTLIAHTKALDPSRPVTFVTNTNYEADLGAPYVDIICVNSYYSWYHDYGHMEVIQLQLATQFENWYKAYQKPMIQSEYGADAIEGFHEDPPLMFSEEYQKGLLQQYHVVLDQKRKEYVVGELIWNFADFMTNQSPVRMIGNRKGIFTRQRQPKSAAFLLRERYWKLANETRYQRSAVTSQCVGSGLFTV

[2] = system: β-D-mannosidase Cellullomonas fimi; assay: Glycosidase inhibition: β-D-mannosidase Cellullomonas fimi; conditions: compounds tested at 0.8 mM
Description: (§1) All enzymes and para-nitrophenyl substrates were purchased from Sigma, with the exception of beta-mannosidase which came from Megazyme. Enzymes were assayed at 27° C. in 0.1M citric acid/0.2M disodium hydrogen phosphate buffers at the optimum pH for the enzyme. The incubation mixture consisted of 10 μl enzyme solution, 10 μl of 1 mg/ml aqueous solution of extract and 50 μl of the appropriate 5 mM para-nitrophenyl substrate made up in buffer at the optimum pH for the enzyme. The reactions were stopped by addition of 70 μl 0.4M glycine (pH 10.4) during the exponential phase of the reaction, which had been determined at the beginning using uninhibited assays in which water replaced inhibitor. Final absorbances were read at 405 nm using a Versamax microplate reader (Molecular Devices). Assays were carried out in triplicate, and the values given are means of the three replicates per assay. (See Watson, A. A., Nash, R. J., Wormald, M. R., Harvey, D. J., Dealler, S., Lees, E., Asano, N., Kizu, H., Kato, A., Griffiths, R. C., Cairns, A. J. and Fleet, G. W. J. (1997). Glycosidase-inhibiting pyrrolidine alkaloids from Hyacinthoides non-scripta. Phytochemistry 46 (2): 255-259.)

[3] = system: Naringinase Penicillium decumbens; assay: Glycosidase inhibition: Naringinase Penicillium decumbens; conditions: compounds tested at 0.8 mM
Text: (§2) The results tabulated below were obtained using commercially available glycosidases and p-nitrophenyl-substrates using standard methods described for example by Watson et al (1997) Phytochemistry 46 255-259. All enzymes and substrates were bought from Sigma. Enzyme and substrate solutions were made using sodium phosphate buffers at the pH optima values. The enzymes used were α-D-glucosidase Saccharomyces cerevisiae, Bacillus stearothermophilus, Oryzae sativa), β-D-glucosidase (Almond), α-D-mannosidase (Jack bean), α-D-galactosidase (Green coffee beans), β-D-galactosidase (Bovine liver), α-L-fucosidase (Bovine kidney), N-acetyl-β-D-glucosaminidase (Bovine kidney, Jack bean, Aspergillus oryzae), Naringinase (Penicillium decumbens) and amyloglucosidase (Aspergillus niger). All enzymes were used with the appropriate p-nitrophenyl substrates (5 mM). Amyloglucosidase activity was measured using amylopectin (0.1%) (Merck) mixed with sodium phosphate buffer, pH 4.5 in a glass bottle, and healed in a boiling water bath for 20 minutes to dissolve with released glucose measured using ‘Trinder’ glucose detection solution (Sigma).
as §1, with “(See Watson, A. A., Nash, R. J., Wormald, M. R., Harvey, D. J., Dealler, S., Lees, E., Asano, N., Kizu, H., Kato, A., Griffiths, R. C., Cairns, A. J. and Fleet, G. W. J. (1997). Glycosidase-inhibiting pyrrolidine alkaloids from Hyacinthoides non-scripta. Phytochemistry 46 (2): 255-259.)” left out

[4] = system: β-D-galactosidase Bovine liver; assay: Glycosidase inhibition: β-D-galactosidase Bovine liver; conditions: compounds tested at 0.8 mM
Text: as §2, §1

α-D-glucosidase (Yeast) = target: T2, α-D-glucosidase (Yeast) (Saccharomyces cerevisiae, UniProt P53341); assay: Glycosidase inhibition: α-D-glucosidase (Yeast); conditions: compounds tested at 0.8 mM
T2 construct: purchased Sigma
Text: as §2, §1

[5] = target: T3, Amyloglucosidase Aspergillus niger (Aspergillus niger, UniProt P69328); assay: Glycosidase inhibition: Amyloglucosidase Aspergillus niger; conditions: compounds tested at 0.8 mM
T3 construct: purchased Sigma
Text: as §2, §1

α-D-glucosidase (Rice) = target: T4, α-D-glucosidase (Rice) (Oryza sativa subsp. japonica, UniProt Q653V7); assay: Glycosidase inhibition: α-D-glucosidase (Rice); conditions: compounds tested at 0.8 mM
T4 construct: purchased Sigma

[6] = system: N-acetyl-β-D-glucosaminidase (Bovine kidney); assay: Glycosidase inhibition: N-acetyl-β-D-glucosaminidase (Bovine kidney); conditions: compounds tested at 0.8 mM;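 note: enzyme activity followed by cleavage of the matching p-nitrophenyl glycoside (5 mM) in phosphate buffer set to the enzyme's optimal pH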
[7] = system: N-acetyl-β-D-glucosaminidase (Jack bean); assay: Glycosidase inhibition: N-acetyl-β-D-glucosaminidase (Jack bean); conditions: compounds tested at 0.8 mM
Text: as §2
as §1, with “(See Watson, A. A., Nash, R. J., Wormald, M. R., Harvey, D. J., Dealler, S., Lees, E., Asano, N., Kizu, H., Kato, A., Griffiths, R. C., Cairns, A. J. and Fleet, G. W. J. (1997). Glycosidase-inhibiting pyrrolidine alkaloids from Hyacinthoides non-scripta. Phytochemistry 46 (2): 255-259.)” left out

[8] = target: T5, N-acetyl-β-D-glucosaminidase (A. oryzae) (Aspergillus oryzae, UniProt Q8J2T0); assay: Glycosidase inhibition: N-acetyl-β-D-glucosaminidase (A. oryzae); conditions: compounds tested at 0.8 mM
T5 construct: purchased Sigma
Text: as §2, §1

[9] = target: T6, α-D-galactosidase Green coffee bean (Coffea arabica, UniProt Q42656); assay: Glycosidase inhibition: α-D-galactosidase Green coffee bean; conditions: compounds tested at 0.8 mM
T6 construct: α-D-galactosidase (Green coffee beans); purchased Sigma; host or cells: green coffee beans
Text: as §2, §1

[10] = target: α-D-glucosidase (Bacillus) (Geobacillus stearothermophilus, UniProt A0ACH1E9U3); assay: Glycosidase inhibition: α-D-glucosidase (Bacillus); conditions: compounds tested at 0.8 mM
Text: as §2, §1

β-D-glucosidase (Almond) = assay: Glycosidase inhibition: β-D-glucosidase (Almond); conditions: compounds tested at 0.8 mM
Text: as §2
as §1, with “(See Watson, A. A., Nash, R. J., Wormald, M. R., Harvey, D. J., Dealler, S., Lees, E., Asano, N., Kizu, H., Kato, A., Griffiths, R. C., Cairns, A. J. and Fleet, G. W. J. (1997). Glycosidase-inhibiting pyrrolidine alkaloids from Hyacinthoides non-scripta. Phytochemistry 46 (2): 255-259.)” left out

[11] = target: rabbit intestinal maltase; assay: Rabbit disaccharidase inhibition assay: maltase; conditions: NI: no inhibition at 0.8 mM
Description: (§3) Sucrose (8.3 mM), maltose (5 mM) and isomaltose (6.3 mM) substrates were made using 0.2 M Macllvaine (citrate-phosphate) buffer, pH 6.0. The glucose detection reagent was prepared according to the supplier's instructions (Megazyme Ltd). Linearity of the timecourse of the reaction between the glucose detection reagent and glucose was tested using a series of glucose dilutions.
(§4) The method for preparation of mammalian small intestine mucosal disaccharidases was based on Griffiths (1998), omitting ammonium sulphate fractionation steps. The small intestine was dissected out of a female wild rabbit, and opened longitudinally using a scalpel. The mucosal layer was scraped off using the edge of a clean microscope slide, and placed into 3 ml of dH2O. The mucosal layer suspension was centrifuged at around 1000 rpm for 30 seconds to sediment tissue debris. The supernatant ([…]) was removed, and centrifuged again at 3500 rcf for 1 minute to remove fine particulates from suspension. The supernatant was diluted to give 0.2-0.25 mg/ml protein and stored at −30° C.
(§5) Enzyme assays were carried out using 5-15 μl of enzyme preparation, 5 μl of test compound (or dH2O for controls) and 15-25 μl of substrate solution. Reactions were covered using a sheet of plate sealing film, and incubated at 37° C. for 60 minutes. Glucose (from disaccharide hydrolysis) was quantified by adding 200 μl of glucose detection reagent and incubating the reactions for a further twenty-five minutes. Absorbance was measured at 510 nm against control blanks.

[12] = target: T7, rabbit intestinal sucrase (Oryctolagus cuniculus, UniProt P07768); assay: Rabbit disaccharidase inhibition assay: sucrase; conditions: NI: no inhibition at 0.8 mM
T7 construct: The small intestine was dissected out of a female wild rabbit; from tissue; host or cells: small-intestinal mucosa of a female wild rabbit
Description: as §3, §4, §5

[13] = target: T8, rabbit intestinal isomaltase (Oryctolagus cuniculus, UniProt P07768); assay: Rabbit disaccharidase inhibition assay: isomaltase; conditions: NI: no inhibition at 0.8 mM
T8 construct: The small intestine was dissected out of a female wild rabbit; from tissue; host or cells: small-intestinal mucosa of a female wild rabbit
Description: as §3, §4, §5

T2 sequence (P53341 whole entry): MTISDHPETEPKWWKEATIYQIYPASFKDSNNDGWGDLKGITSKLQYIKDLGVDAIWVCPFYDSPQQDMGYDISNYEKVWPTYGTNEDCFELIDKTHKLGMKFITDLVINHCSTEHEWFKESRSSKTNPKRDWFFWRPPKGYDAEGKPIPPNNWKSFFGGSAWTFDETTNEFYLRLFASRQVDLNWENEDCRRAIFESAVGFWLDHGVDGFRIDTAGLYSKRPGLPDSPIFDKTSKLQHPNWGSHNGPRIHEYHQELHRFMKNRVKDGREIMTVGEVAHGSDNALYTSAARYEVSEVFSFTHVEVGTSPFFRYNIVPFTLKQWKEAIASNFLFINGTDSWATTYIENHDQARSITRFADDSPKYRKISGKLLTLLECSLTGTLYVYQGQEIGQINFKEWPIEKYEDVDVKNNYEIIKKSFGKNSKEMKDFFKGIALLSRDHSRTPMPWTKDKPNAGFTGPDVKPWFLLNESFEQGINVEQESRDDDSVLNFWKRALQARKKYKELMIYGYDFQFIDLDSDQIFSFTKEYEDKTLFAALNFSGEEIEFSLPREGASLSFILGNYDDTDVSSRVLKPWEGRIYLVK
T8 sequence (P07768 whole entry): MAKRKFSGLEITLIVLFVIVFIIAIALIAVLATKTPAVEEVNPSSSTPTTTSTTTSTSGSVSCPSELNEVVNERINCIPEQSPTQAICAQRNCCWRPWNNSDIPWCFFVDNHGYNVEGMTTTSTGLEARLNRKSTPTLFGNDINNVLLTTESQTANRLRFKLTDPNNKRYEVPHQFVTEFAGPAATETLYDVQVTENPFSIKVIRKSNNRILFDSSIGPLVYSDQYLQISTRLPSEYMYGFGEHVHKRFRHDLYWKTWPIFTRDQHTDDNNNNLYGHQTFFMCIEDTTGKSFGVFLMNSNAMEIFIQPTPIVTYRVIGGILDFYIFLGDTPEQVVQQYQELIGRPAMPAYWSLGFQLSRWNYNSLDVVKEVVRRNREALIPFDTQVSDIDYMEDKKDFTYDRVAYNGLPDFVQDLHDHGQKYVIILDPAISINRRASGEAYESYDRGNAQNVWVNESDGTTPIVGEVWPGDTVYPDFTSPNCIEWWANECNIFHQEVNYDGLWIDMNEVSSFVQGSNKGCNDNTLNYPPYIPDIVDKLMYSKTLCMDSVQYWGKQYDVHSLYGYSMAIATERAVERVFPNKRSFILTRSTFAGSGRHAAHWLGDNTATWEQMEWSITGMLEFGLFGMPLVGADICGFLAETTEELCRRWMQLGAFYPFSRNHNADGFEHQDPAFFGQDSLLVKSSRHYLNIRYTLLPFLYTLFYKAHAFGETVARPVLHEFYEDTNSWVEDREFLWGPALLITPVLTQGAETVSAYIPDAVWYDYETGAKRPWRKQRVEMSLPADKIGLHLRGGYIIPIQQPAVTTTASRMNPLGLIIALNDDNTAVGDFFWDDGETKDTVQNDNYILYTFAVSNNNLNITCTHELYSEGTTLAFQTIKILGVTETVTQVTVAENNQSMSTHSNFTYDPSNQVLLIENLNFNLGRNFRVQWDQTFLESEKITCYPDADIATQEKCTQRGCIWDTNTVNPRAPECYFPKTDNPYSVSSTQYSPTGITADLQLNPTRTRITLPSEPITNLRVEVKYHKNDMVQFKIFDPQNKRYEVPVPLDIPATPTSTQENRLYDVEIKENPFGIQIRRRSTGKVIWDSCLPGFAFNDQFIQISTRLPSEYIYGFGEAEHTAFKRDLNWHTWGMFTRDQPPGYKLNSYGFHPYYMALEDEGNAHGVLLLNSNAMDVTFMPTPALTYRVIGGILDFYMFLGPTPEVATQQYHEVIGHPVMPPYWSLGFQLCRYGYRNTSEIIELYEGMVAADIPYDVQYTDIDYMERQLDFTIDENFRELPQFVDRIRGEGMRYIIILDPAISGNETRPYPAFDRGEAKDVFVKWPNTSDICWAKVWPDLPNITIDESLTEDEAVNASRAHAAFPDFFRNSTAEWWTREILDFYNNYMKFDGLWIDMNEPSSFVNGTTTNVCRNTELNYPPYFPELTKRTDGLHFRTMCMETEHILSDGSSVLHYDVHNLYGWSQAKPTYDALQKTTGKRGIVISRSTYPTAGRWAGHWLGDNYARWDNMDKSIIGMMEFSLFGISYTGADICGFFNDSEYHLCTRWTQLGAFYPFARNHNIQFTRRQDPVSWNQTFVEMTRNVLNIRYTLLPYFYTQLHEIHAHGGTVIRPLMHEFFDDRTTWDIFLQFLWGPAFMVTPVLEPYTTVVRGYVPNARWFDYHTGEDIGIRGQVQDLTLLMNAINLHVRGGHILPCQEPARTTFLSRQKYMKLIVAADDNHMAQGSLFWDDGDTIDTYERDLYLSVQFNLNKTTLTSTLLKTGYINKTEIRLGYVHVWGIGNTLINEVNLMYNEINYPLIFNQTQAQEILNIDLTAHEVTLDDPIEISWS
T7 sequence (P07768 whole entry): as above
α-D-glucosidase (Bacillus), sequence (A0ACH1E9U3 entry or part of it): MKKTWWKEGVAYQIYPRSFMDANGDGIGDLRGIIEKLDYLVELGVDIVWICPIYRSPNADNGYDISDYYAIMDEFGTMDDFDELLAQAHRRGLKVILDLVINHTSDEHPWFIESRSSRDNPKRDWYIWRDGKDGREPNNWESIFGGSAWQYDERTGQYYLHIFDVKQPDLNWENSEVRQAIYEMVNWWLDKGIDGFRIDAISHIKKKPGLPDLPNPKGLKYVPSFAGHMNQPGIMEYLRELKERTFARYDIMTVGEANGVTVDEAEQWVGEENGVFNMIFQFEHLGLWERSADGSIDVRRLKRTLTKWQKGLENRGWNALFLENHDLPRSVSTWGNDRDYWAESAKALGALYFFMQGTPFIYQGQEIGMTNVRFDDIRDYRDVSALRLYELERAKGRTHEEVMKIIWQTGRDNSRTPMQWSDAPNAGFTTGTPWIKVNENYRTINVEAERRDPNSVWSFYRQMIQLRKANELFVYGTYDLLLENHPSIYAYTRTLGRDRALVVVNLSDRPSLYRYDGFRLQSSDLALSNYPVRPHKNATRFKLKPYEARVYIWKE
T4 sequence (Q653V7 34-885): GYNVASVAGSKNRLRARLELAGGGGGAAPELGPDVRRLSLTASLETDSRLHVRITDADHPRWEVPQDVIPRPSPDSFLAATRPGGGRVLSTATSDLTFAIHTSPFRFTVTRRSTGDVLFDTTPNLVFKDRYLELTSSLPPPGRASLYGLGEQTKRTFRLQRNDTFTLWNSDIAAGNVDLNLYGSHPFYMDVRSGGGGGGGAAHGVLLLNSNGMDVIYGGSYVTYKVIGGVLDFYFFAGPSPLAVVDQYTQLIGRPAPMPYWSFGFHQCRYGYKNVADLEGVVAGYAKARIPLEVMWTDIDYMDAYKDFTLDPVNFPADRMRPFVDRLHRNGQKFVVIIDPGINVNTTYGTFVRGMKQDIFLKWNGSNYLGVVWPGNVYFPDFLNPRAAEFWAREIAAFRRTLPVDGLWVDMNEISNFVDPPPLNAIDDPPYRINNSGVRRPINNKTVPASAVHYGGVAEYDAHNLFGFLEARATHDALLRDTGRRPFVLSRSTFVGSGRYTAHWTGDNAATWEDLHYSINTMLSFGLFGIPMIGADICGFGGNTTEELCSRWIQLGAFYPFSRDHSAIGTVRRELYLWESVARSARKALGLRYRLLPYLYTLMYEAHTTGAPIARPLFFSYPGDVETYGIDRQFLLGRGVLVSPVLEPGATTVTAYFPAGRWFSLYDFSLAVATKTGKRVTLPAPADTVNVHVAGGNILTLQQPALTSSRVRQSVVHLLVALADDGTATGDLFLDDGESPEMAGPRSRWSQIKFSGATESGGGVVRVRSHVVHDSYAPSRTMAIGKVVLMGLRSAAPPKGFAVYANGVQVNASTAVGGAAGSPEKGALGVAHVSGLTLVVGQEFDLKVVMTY
T5 sequence (Q8J2T0 97-600): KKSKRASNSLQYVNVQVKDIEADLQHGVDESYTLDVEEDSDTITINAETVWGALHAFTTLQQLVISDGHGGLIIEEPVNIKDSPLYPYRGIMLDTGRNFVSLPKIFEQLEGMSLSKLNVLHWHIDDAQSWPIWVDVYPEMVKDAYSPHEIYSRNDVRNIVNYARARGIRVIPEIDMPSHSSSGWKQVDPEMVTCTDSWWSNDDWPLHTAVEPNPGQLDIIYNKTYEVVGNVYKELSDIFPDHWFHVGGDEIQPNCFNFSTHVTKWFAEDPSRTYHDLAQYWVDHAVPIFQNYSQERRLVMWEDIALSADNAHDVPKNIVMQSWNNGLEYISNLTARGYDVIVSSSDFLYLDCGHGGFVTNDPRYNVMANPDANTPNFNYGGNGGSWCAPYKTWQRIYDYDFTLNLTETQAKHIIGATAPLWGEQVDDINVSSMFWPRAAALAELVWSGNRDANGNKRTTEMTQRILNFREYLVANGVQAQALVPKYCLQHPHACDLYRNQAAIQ
T6 sequence (Q42656 16-378): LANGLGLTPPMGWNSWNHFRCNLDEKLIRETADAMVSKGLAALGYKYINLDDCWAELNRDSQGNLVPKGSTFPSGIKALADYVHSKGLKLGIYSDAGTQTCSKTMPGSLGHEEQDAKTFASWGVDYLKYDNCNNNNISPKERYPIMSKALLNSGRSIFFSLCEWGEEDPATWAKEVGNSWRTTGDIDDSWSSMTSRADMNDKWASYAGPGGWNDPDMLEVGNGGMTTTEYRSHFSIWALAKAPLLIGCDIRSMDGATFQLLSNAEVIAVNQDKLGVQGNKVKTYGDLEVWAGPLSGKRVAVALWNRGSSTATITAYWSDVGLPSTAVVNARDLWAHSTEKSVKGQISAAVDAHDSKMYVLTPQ

SMILES: OCCN1C[C@H](O)[C@@H](O)[C@H](O)[C@H]1CO [Miglitol, reference compound]
inhibition at 800 µM [1]: < 5% | % inhibition, β-D-mannosidase Cellullomonas fimi [2]: NI (NI = no inhibition) | % inhibition, Naringinase Penicillium decumbens [3]: 26% | % inhibition, β-D-galactosidase Bovine liver [4]: 87% | inhibition at 800 µM (α-D-glucosidase (Yeast)): < 5% | inhibition at 800 µM [5]: 78% | inhibition at 800 µM (α-D-glucosidase (Rice)): 100% | % inhibition, N-acetyl-β-D-glucosaminidase (Bovine kidney) [6]: NI (NI = no inhibition) | % inhibition, N-acetyl-β-D-glucosaminidase (Jack bean) [7]: NI (NI = no inhibition) | inhibition at 800 µM [8]: < 5% | inhibition at 800 µM [9]: 19% | inhibition at 800 µM [10]: 83% | % inhibition, β-D-glucosidase (Almond) (β-D-glucosidase (Almond)): 99%

IC50 [11]: 970 nM | IC50 [12]: 220 nM | IC50 [13]: 190 nM
SMILES: CCCCN1C[C@H](O)[C@@H](O)[C@H](O)[C@H]1CO [Zavesca, N-butyl-DNJ, reference compound]
